Measured values: US20080274892A1, “Novel Haloalkylsulfonanilide Derivative, Herbicide, and Method of Use Thereof” (priority 2005, published 2008)

Assays:
[1] = tested on: paddy rice plant (cultivar: Nihonbare); assay: Test Example 3: phytotoxicity test for transplanted paddy rice plant; format: in vivo; conditions: dosage 1000 g/ha; transplanted rice, treated 5 days after transplantation; 21 days after treatment
How it was run: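 Clay loam soil was placed in a 75 cm^2 plastic pot and flooded to a water depth of 5 cm. Two Nihonbare paddy rice plants at the two-leaf stage were transplanted 1 cm deep and grown in a hot house. After treatment, pots stayed in the hot house for 21 days, and phytotoxicity was then graded against an untreated control.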

[2] = tested on: bulrush; assay: Test Example 2: herbicidal efficacy on rice paddy weeds post-emergence; format: in vivo, Scirpus juncoides; conditions: dosage 1000 g/ha; post-emergence, one leaf stage; 21 days after treatment
[3] = tested on: false pimpernel; assay: Test Example 1: herbicidal efficacy on rice paddy weeds pre-emergence; format: in vivo, Lindernia pyxidaria; conditions: dosage 1000 g/ha, 21 days
[4] = tested on: barnyard glass; assay: Test Example 2: herbicidal efficacy on rice paddy weeds post-emergence; format: in vivo, Echinochloa crus-galli; conditions: dosage 1000 g/ha; post-emergence, one leaf stage; 21 days after treatment
How it was run: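 Efficacy on paddy weeds was scored on a 0 to 4 growth-inhibition scale: 4 for 90%-100%, 3 for 70%-89%, 2 for 40%-69%, 1 for 1%-39% and 0 for 0%. Barnyard glass was grown in clay loam in 75 cm^2 pots under 5 cm of water in a hot house. It was compared with untreated pots 21 days after treatment.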

[5] = tested on: bulrush; assay: Test Example 1: herbicidal efficacy on rice paddy weeds pre-emergence; format: in vivo, Scirpus juncoides; conditions: dosage 1000 g/ha, 21 days
[6] = tested on: transplanted paddy rice plant and Bulrush; assay: Test Example 5: selectivity between transplanted paddy rice plant and weeds; format: in vivo; conditions: (highest dosage with no phytotoxicity to paddy rice)/(lowest dosage with effective level 4 on Bulrush); rice 3000-100 g/ha, Bulrush 300-10 g/ha; 21 days
How it was run: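 Scoring ran 21 days after treatment in a hothouse on a 0–4 scale (4 = 90–100%, 3 = 70–89%, 2 = 40–69%, 1 = 1–39%, 0 = none) relative to untreated plants. Post-emergence bulrush received 10, 30, 100 and 300 g/ha active ingredient. Transplanted rice received 100, 300, 1000 and 3000 g/ha to assess crop injury.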

[7] = tested on: false pimpernel; assay: Test Example 2: herbicidal efficacy on rice paddy weeds post-emergence; format: in vivo, Lindernia pyxidaria; conditions: dosage 1000 g/ha; post-emergence, one leaf stage; 21 days after treatment
[8] = tested on: bulrush; assay: Test Example 4: low dosage test for rice paddy weeds; format: in vivo, Scirpus juncoides; conditions: 300 g/ha as an active ingredient; plants treated at the one leaf stage; 21 days after treatment; vs untreated control
How it was run: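 Compound applied as a formulation at 300 g/ha to one-leaf bulrush grown in flooded clay loam (5 cm water) in a hot house. After 21 days, growth inhibition versus untreated plants rated on a 0–4 scale, with 4 meaning 90–100%.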

SMILES | Phytotoxicity to paddy rice [1] | Bulrush post (herbicidal efficacy grade) [2] | False pimpernel pre (herbicidal efficacy grade) [3] | Burnyard grass post (herbicidal efficacy grade) [4] | Bulrush pre (herbicidal efficacy grade) [5] | Selective Index [6] | False pimpernel post (herbicidal efficacy grade) [7] | Herbicide effect to Bulrush [8]
CC(C)COC(=O)N(c1ccccc1CN1CC(C)(C2(C)CC2)OC1=O)S(=O)(=O)C(F)(F)F (stereo not shown) [1-168] | 1 (1%-39% of herbicidal efficacy or phytotoxicity) | 4 (90%-100% of herbicidal efficacy or phytotoxicity) | 4 (90%-100% of herbicidal efficacy or phytotoxicity) | 4 (90%-100% of herbicidal efficacy or phytotoxicity) | 4 (90%-100% of herbicidal efficacy or phytotoxicity) | 10 | 4 (90%-100% of herbicidal efficacy or phytotoxicity) | 4 (90%-100% of herbicidal efficacy or phytotoxicity)
CCCCOC(=O)N(c1ccccc1CN1CC(C)(C2CC2)OC1=O)S(=O)(=O)C(F)(F)F (racemic) [1-113] | 1 (1%-39% of herbicidal efficacy or phytotoxicity) | 4 (90%-100% of herbicidal efficacy or phytotoxicity) | 4 (90%-100% of herbicidal efficacy or phytotoxicity) | 4 (90%-100% of herbicidal efficacy or phytotoxicity) | 4 (90%-100% of herbicidal efficacy or phytotoxicity) | 30 | 4 (90%-100% of herbicidal efficacy or phytotoxicity) | 4 (90%-100% of herbicidal efficacy or phytotoxicity)
CC(C)C1(C)CN(Cc2ccccc2NS(=O)(=O)C(F)(F)F)C(=O)O1 (racemic) [1-101] | 1 (1%-39% of herbicidal efficacy or phytotoxicity) | 4 (90%-100% of herbicidal efficacy or phytotoxicity) | 4 (90%-100% of herbicidal efficacy or phytotoxicity) | 4 (90%-100% of herbicidal efficacy or phytotoxicity) | 4 (90%-100% of herbicidal efficacy or phytotoxicity) | 10 | 4 (90%-100% of herbicidal efficacy or phytotoxicity) | 4 (90%-100% of herbicidal efficacy or phytotoxicity)
COCCOC(=O)N(c1ccccc1CN1CC(C)(C2CC2)OC1=O)S(=O)(=O)C(F)(F)F (racemic) [1-119] | 1 (1%-39% of herbicidal efficacy or phytotoxicity) | 4 (90%-100% of herbicidal efficacy or phytotoxicity) | 4 (90%-100% of herbicidal efficacy or phytotoxicity) | 4 (90%-100% of herbicidal efficacy or phytotoxicity) | 4 (90%-100% of herbicidal efficacy or phytotoxicity) | 30 | 4 (90%-100% of herbicidal efficacy or phytotoxicity) | 4 (90%-100% of herbicidal efficacy or phytotoxicity)
CC1(C)CN(Cc2ccccc2NS(=O)(=O)C(F)(F)F)C(=O)O1 [1-43] | 2 (40%-69% of herbicidal efficacy or phytotoxicity) | 4 (90%-100% of herbicidal efficacy or phytotoxicity) | 4 (90%-100% of herbicidal efficacy or phytotoxicity) | 4 (90%-100% of herbicidal efficacy or phytotoxicity) | 4 (90%-100% of herbicidal efficacy or phytotoxicity) | 10 | 4 (90%-100% of herbicidal efficacy or phytotoxicity) | 4 (90%-100% of herbicidal efficacy or phytotoxicity)
